The record followed here is PubChem BioAssay (NCI).

Molecules are shown by their SMILES.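 How tested: cells in 96-well plates exposed to compound for 48 hours at five concentrations. Definition used: TGI = concentration required for complete inhibition of growth.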

Test systems include SNB-75 CNS; COLO 205 colon; IGROV1 ovarian; HOP-62 NSCLC; MDA-MB-231 breast; UACC-62 melanoma; RPMI-8226 leukemia; A549 NSCLC; SK-MEL-28 melanoma; HL-60(TB) leukemia; MALME-3M melanoma; MDA-MB-435; M14 melanoma; OVCAR-5 ovarian; HCT-116 colon; OVCAR-3 ovarian; SK-OV-3 ovarian.
Holding throughout (test): NCI tumour cell line growth inhibition, 48 h

For the molecule `Oc1cc(Cl)cc2cccnc12`, the TGI is more than 100 µM with SNB-75 CNS; 26.1 µM in the assay on COLO 205 colon; 5.12 µM with IGROV1 ovarian; more than 100 µM with HOP-62 NSCLC; 39.7 µM in the assay with MDA-MB-231 breast; 7.49 µM with UACC-62 melanoma. In addition, the TGI in the assay on RPMI-8226 leukemia is 5.31 µM; in the assay with A549 NSCLC, more than 100 µM; in the assay on SK-MEL-28 melanoma it was more than 100 µM; with HL-60(TB) leukemia, 0.727 µM; in the assay with MALME-3M melanoma, 54.5 µM; in the assay with MDA-MB-435, more than 77.6 µM. The TGI in the assay with M14 melanoma was more than 37.4 µM; in the assay with OVCAR-5 ovarian, more than 100 µM; in the assay on HCT-116 colon, more than 23.3 µM; in the assay with OVCAR-3 ovarian, 3.18 µM; in the assay on SK-OV-3 ovarian it was more than 100 µM.
`NCCCN1c2ccccc2Sc2ccc(Cl)cc21`: the TGI in the assay on SNB-75 CNS was more than 10 µM; in the assay with COLO 205 colon, 3.27 µM; in the assay on IGROV1 ovarian, more than 10 µM; in the assay with HOP-62 NSCLC, more than 10 µM; in the assay on MDA-MB-231 breast, more than 8.72 µM; with UACC-62 melanoma it was more than 10 µM. Further, the TGI is more than 10 µM with RPMI-8226 leukemia; more than 10 µM with A549 NSCLC; more than 10 µM with SK-MEL-28 melanoma; more than 10 µM in the assay with HL-60(TB) leukemia; more than 10 µM with MALME-3M melanoma; 4.01 µM in the assay on MDA-MB-435. For the same molecule, the TGI with M14 melanoma was 3.21 µM; with OVCAR-5 ovarian it was more than 9.34 µM; with HCT-116 colon, 7.03 µM; in the assay on OVCAR-3 ovarian it was more than 10 µM; in the assay on SK-OV-3 ovarian, more than 10 µM.
On to `CCN1CN(c2ccccc2)C2(CCN(CC3COc4ccccc4O3)CC2)C1=O` (stereo not given), for which the TGI in the assay on SNB-75 CNS is 94 µM; in the assay with COLO 205 colon, 31.5 µM; in the assay on IGROV1 ovarian, more than 100 µM; in the assay on HOP-62 NSCLC, more than 100 µM; in the assay on MDA-MB-231 breast it was 4.78 µM; with UACC-62 melanoma, 73.4 µM. Besides, the TGI with RPMI-8226 leukemia was 57.9 µM; with A549 NSCLC, more than 100 µM; with SK-MEL-28 melanoma, 87.3 µM; in the assay on HL-60(TB) leukemia, 45.5 µM; with MALME-3M melanoma, 36 µM; with MDA-MB-435, 67.2 µM. Besides, the TGI in the assay on M14 melanoma is 4.99 µM; in the assay on OVCAR-5 ovarian it was more than 100 µM; with HCT-116 colon it was 43.7 µM; in the assay on OVCAR-3 ovarian, more than 100 µM; with SK-OV-3 ovarian it was more than 100 µM.
As to `C=C1C(=O)CC2C1CC(=O)/C(C)=C/CCC(C)(O)C2O` (stereo not given), the TGI in the assay with SNB-75 CNS was 28 µM; in the assay with COLO 205 colon, 7.49 µM; in the assay on IGROV1 ovarian it was 20.4 µM; in the assay with HOP-62 NSCLC, 43.7 µM; in the assay with MDA-MB-231 breast, 25.2 µM; in the assay with UACC-62 melanoma, 14.8 µM. The TGI with RPMI-8226 leukemia is more than 37.9 µM; with A549 NSCLC it was 46.5 µM; with SK-MEL-28 melanoma it was 33.3 µM; in the assay on HL-60(TB) leukemia it was 10.1 µM; in the assay with MALME-3M melanoma, 3.01 µM; with MDA-MB-435, 20.4 µM. In addition, the TGI is more than 31.2 µM in the assay with M14 melanoma; 27.7 µM with OVCAR-5 ovarian; 6.92 µM in the assay with HCT-116 colon; 17 µM in the assay on OVCAR-3 ovarian; 49.8 µM with SK-OV-3 ovarian.
As for `CCOC(=O)c1cccc(N=Nc2nc[nH]c2/C=C/C(=O)OC)c1`, the TGI with SNB-75 CNS was 58.7 µM; in the assay with COLO 205 colon, more than 100 µM; with IGROV1 ovarian, more than 100 µM; in the assay with HOP-62 NSCLC, more than 100 µM; in the assay on MDA-MB-231 breast, more than 100 µM; in the assay on UACC-62 melanoma it was more than 100 µM. Moreover, the TGI was more than 100 µM in the assay with RPMI-8226 leukemia; more than 100 µM in the assay with A549 NSCLC; more than 100 µM in the assay with SK-MEL-28 melanoma; 53.4 µM in the assay with HL-60(TB) leukemia; 71.8 µM in the assay on MALME-3M melanoma; more than 100 µM in the assay on MDA-MB-435. Further, the TGI is 49.6 µM in the assay with M14 melanoma; more than 100 µM in the assay on OVCAR-5 ovarian; more than 100 µM in the assay on HCT-116 colon; more than 100 µM in the assay on OVCAR-3 ovarian; more than 100 µM in the assay on SK-OV-3 ovarian.
For `O=C(O)CCNc1ncnc2nc[nH]c12`, the TGI in the assay on SNB-75 CNS, with COLO 205 colon, in the assay on IGROV1 ovarian, in the assay on HOP-62 NSCLC, with MDA-MB-231 breast and in the assay on UACC-62 melanoma was more than 100 µM in each case. In addition, the TGI in the assay with RPMI-8226 leukemia, with A549 NSCLC, in the assay with SK-MEL-28 melanoma, with HL-60(TB) leukemia, in the assay on MALME-3M melanoma and in the assay with MDA-MB-435 was more than 100 µM each time. Moreover, the TGI with M14 melanoma, with OVCAR-5 ovarian, in the assay with HCT-116 colon, in the assay with OVCAR-3 ovarian and with SK-OV-3 ovarian was more than 100 µM throughout.
In the case of `CCNC(=S)NNC(=O)C12CC3CC(CC(C3)C1)C2`, the TGI in the assay on SNB-75 CNS, in the assay on COLO 205 colon, with IGROV1 ovarian, in the assay on HOP-62 NSCLC, in the assay on MDA-MB-231 breast and in the assay on UACC-62 melanoma was more than 100 µM each time. Also, the TGI in the assay with RPMI-8226 leukemia, in the assay with A549 NSCLC, with SK-MEL-28 melanoma, in the assay on HL-60(TB) leukemia, in the assay on MALME-3M melanoma and in the assay with MDA-MB-435 was more than 100 µM each time. For the same molecule, the TGI with M14 melanoma, with OVCAR-5 ovarian, with HCT-116 colon, in the assay with OVCAR-3 ovarian and in the assay with SK-OV-3 ovarian was more than 100 µM each time.
On to `Cc1c2cc[n+](C)c(C)c2cc2c1[nH]c1ccccc12`, for which the TGI with SNB-75 CNS was 6.98 µM; in the assay with COLO 205 colon, 5.54 µM; with IGROV1 ovarian, more than 100 µM; with HOP-62 NSCLC it was 37.5 µM; in the assay on MDA-MB-231 breast, more than 36.3 µM; in the assay with UACC-62 melanoma, 48.8 µM. In addition, the TGI in the assay on RPMI-8226 leukemia is 73.5 µM; in the assay with A549 NSCLC, 68.7 µM; with SK-MEL-28 melanoma, 26.4 µM; with HL-60(TB) leukemia, 82.1 µM; with MALME-3M melanoma, 14.2 µM; with MDA-MB-435, more than 75.2 µM. The TGI is more than 100 µM in the assay on M14 melanoma; 82.6 µM in the assay on OVCAR-5 ovarian; more than 86.1 µM with HCT-116 colon; 57.7 µM in the assay with OVCAR-3 ovarian; 89.2 µM in the assay with SK-OV-3 ovarian.
In the case of `NS(=O)(=O)c1ccc(NC(=S)/N=C/C2=C(O)c3ccccc3C2=O)cc1`, the TGI with SNB-75 CNS is 76.4 µM; in the assay on COLO 205 colon it was more than 100 µM; in the assay on IGROV1 ovarian it was more than 100 µM; in the assay with HOP-62 NSCLC, more than 100 µM; with MDA-MB-231 breast, more than 100 µM; in the assay with UACC-62 melanoma, more than 100 µM. The TGI in the assay with RPMI-8226 leukemia, with A549 NSCLC, in the assay with SK-MEL-28 melanoma, with HL-60(TB) leukemia, in the assay with MALME-3M melanoma and in the assay on MDA-MB-435 was more than 100 µM in each case. In addition, the TGI in the assay with M14 melanoma, with OVCAR-5 ovarian, in the assay on HCT-116 colon, in the assay with OVCAR-3 ovarian and in the assay on SK-OV-3 ovarian was more than 100 µM throughout.
Turning to `O=[N+]([O-])C(=C(Nc1ccccc1)Nc1ccccc1)C(Cl)=C(Cl)Cl`, the TGI in the assay on SNB-75 CNS amounted to 36.5 µM; in the assay with COLO 205 colon, 34.1 µM; in the assay on IGROV1 ovarian, 27.2 µM; in the assay on HOP-62 NSCLC, 44.7 µM; in the assay on MDA-MB-231 breast, 33.3 µM; in the assay on UACC-62 melanoma, 32.2 µM. Besides, the TGI in the assay on RPMI-8226 leukemia stood at 65.9 µM; in the assay with A549 NSCLC, 35.2 µM; with SK-MEL-28 melanoma it was 35.7 µM; in the assay on HL-60(TB) leukemia, 27.7 µM; with MALME-3M melanoma, 41.9 µM; in the assay with MDA-MB-435, 28.7 µM. Also, the TGI with M14 melanoma was determined as 36.1 µM; with OVCAR-5 ovarian, 41.8 µM; in the assay with HCT-116 colon it was 25.5 µM; in the assay on OVCAR-3 ovarian, 33.5 µM; with SK-OV-3 ovarian, 68.5 µM.
